For one data set, the system named is HIV-1 virions. Briefly: Infectivity of HIV-1 virions from treated cells on naive CEM-SS cells. The format is cell-based. The procedure:
In concert with p24 analysis, cell supernatants collected from cells exposed to test compounds at 8, 16, or 24 hours post-infection were used to infect naïve CEM-SS cells. Cell viability was measured six days post-infection as a measure of virus infectivity (Table 5).

Data set [1] has as its system HIV-1RF. Briefly: Post-exposure assay: compounds added after HIV-1 infection of CEM-SS cells, cell viability. The conditions noted are these: Human immunodeficiency virus 1, CEM-SS, read-out: EC50. In kind it is cell-based. The protocol: (§1) The effects of pre- and post-infection PI treatment on CEM-SS toxicity were assessed. […] Cell toxicity was monitored six days after infection using XTT reagent. In the post-exposure assay, test compounds were added to cells 0, 24, 48, or 72 h after HIV-1 infection, and cell viability was measured six days post-infection.

Data set [2] concerns HIV-1RF. Briefly: Pre-exposure assay: CEM-SS cells treated before HIV-1RF infection, cell viability. In kind it is cell-based. The conditions noted are these: for EC50: Human immunodeficiency virus 1, CEM-SS, read-out: EC50. The procedure: as §1
Another data set relates to CEM-SS cells. Briefly: Post-exposure assay: toxicity in CEM-SS cells. The conditions noted are these: human. The protocol:
as §1

Data set [3] relates to HIV-1RF. Briefly: p24 levels after single high MOI HIV-1RF infection of CEM-SS cells, time of addition. In kind it is cell-based. The procedure: The cytoprotective effect against HIV of the PEG-protease inhibitor conjugates was evaluated during a single round of high multiplicity of infection (“MOI”) HIV-1 infection in CEM-SS cells. CEM-SS cells were incubated for one hour with a single high MOI dose of HIV-1RF. Cells were washed to remove free virus, then test compounds were added to cells at 0, 2, 4, 6, 8, 16, or 24 hours after HIV-1 infection. To monitor viral replication, cell supernatants were analyzed at 30 hours post-infection for levels of the HIV capsid protein p24 (FIG. 1). […] Nevirapine inhibited viral replication at 1 μM when added to cells up to four hours post-infection, and at 10 μM when added up to eight hours post-infection.

For data set [4], the system named is human liver microsomal proteins. Briefly: Microsomal protein binding by equilibrium dialysis. In kind it is in vitro ADME. The conditions noted are these: human liver microsomes, 3 μM, fraction unbound. The protocol: PEGylated protease inhibitors were evaluated for their propensity to be bound by proteins in normal human plasma or in human liver microsome preparations using equilibrium dialysis analysis. For microsomal protein binding, test compound (final concentration=3 μM) was diluted into either buffer alone or buffer containing human liver microsomes. The protein-free and microsome-containing solutions were then added to either side of an equilibrium dialysis system and allowed to reach equilibrium at 37° C. The concentration of compound on both sides of the membrane at equilibrium was quantified by LC-MS/MS, and the fraction of compound that remains unbound (Fu) is calculated.
For orientation: Equilibrium dialysis compares concentrations on both sides of a semipermeable membrane.

A further data set has as its system Caco-2 cells. Briefly: Bi-directional permeability in Caco-2 monolayers. The conditions noted are these: Caco-2 monolayers. The procedure: Absorption properties of various compounds were measured using bi-directional permeability assays in Caco-2 cells. […] The efflux ratio is calculated as the ratio of the Papp(B→A)/Papp(A→B).
(Caco-2 cells form a polarised layer with tight junctions and transporters.)

The test system of the next data set is HIV-1 HT/92/599. As to the kind of experiment: HIV-1 reverse transcriptase activity after infection of fresh human PBMCs. The format is cell-based. The conditions noted are these: read-out: PBMC/HIV-1HT/92/599 EC50 ± SD; seven days, reverse transcriptase activity. The protocol:
(§2) Fresh human peripheral blood mononuclear cells (PBMCs) obtained from a commercial source were purified following centrifugation using a Ficoll-Hypaque density gradient. Viable cells were induced to proliferate in the presence of PHA-P and recombinant human IL-2 for 72 hours. […] Cell supernatant containing HIV-1 viral was incubated for 90 minutes at 37° C. with a reaction mixture containing EGTA, Triton X-100, Tris (pH 7.4), DTT, MgCl2, poly rA, oligo dT, and tritiated thymidine triphosphate (TTP). Incorporation of TTP into DNA was monitored by spotting the reaction mixture onto a DEAE filter mat, followed by washes with 5% phosphate buffer, distilled water, and 70% ethanol, and subsequent drying of the mat. Radioactivity was measured using a Wallac 1450 Microbeta Trilux liquid scintillation counter using Opti-Fluor O. Test compound-associated toxicity was measured in PBMCs cultured for seven days in the absence of virus using XTT reagent. […] TI was calculated as TC50/EC50.

For the next data set, the system named is human plasma proteins. Briefly: Plasma protein binding by equilibrium dialysis, human plasma. The format is in vitro ADME. The note with it: human plasma, 5 μM, fraction unbound. The procedure:
In assays to estimate binding of test compounds to plasma proteins, test compound solutions (5 μM) are prepared in buffer and species-specific plasma (final DMSO concentration 0.5%). The plasma-containing solution is added to one side of the membrane of an equilibrium dialysis system, and the plasma-free is added to the other side. Dialysis was allowed to reach equilibrium by incubation for two hours at 37° C. The concentration of compound on both sides of the membrane was measured using LC-MS/MS.

Another data set deals with PBMCs. As to the kind of experiment: Toxicity in PBMCs cultured without virus (XTT). The note with it: seven days, absence of virus, XTT. The protocol:
as §2, with “mat.” for “mat. Radioactivity was measured using a Wallac 1450 Microbeta Trilux liquid scintillation counter using Opti-Fluor O. Test compound-associated toxicity was measured in PBMCs cultured for seven days in the absence of virus using XTT reagent.”
(Tetrazolium assays rely on reduction of a dye to a coloured formazan, in cell work by metabolically active cells.)

In data set [5] the test system is HIV-1RF. As to the kind of experiment: Anti-HIV cytoprotection in CEM-SS cells infected with HIV-1RF (XTT). The note with it: six days, XTT; read-out: CEM-SS/HIV-1RF EC50 ± SD. In kind it is cell-based. The procedure: To evaluate whether conjugated protease inhibitors retain the ability to protect against HIV-1 infection, CEM-SS cells infected with the RF strain of HIV-1 were treated with test compounds for six days, and then cell viability was monitored using the tetrazolium dye XTT. […] A value for Therapeutic Index (TI) was calculated as TC50/EC50.

Data set [6] is described as follows: Metabolic stability in human liver microsomes. The note with it: human liver microsomes, 3 μM. The procedure:
The human liver microsome-mediated biotransformation of PEG-PI compounds was determined by monitoring the loss of the substrate as a function of time. […] Test compounds (3 μM final concentration) were preincubated with pooled (male and female) human liver microsomes (0.5 mg/mL final protein concentration) in buffer (0.1M phosphate buffer, pH 7.4) at 37° C. Reactions were initiated by the addition of NADPH (1 mM final concentration), and allowed to continue for 0, 5, 15, 30, and 45 minutes. […] Sample supernatants are analyzed by liquid chromatography-tandem mass spectrometry.

[7] abbreviates: drug addition 0 h post-infection.
Where [8] appears, read: drug addition 24 h post-infection.
Where [9] appears, read: drug addition 48 h post-infection.
[10] abbreviates: drug addition 72 h post-infection.

Values after ≈ are worked out from the molar mass of the structure shown. Values joined by “and” are separate entries in the source; they are usually repeats but may differ in a detail not shown here. Identical values can stand only once. Some results are limits rather than exact numbers.

For the molecule `COc1cc(-c2ccc(/N=N/c3ccc4c(S(=O)(=O)O)cc(S(=O)(=O)O)c(N)c4c3O)c(OC)c2)ccc1/N=N/c1ccc2c(S(=O)(=O)O)cc(S(=O)(=O)O)c(N)c2c1O` [Chicago Sky Blue], the “Percent Infectivity of HIV-1 Virions in comparison to virus-alone control” value (“Percent Infectivity of HIV-1 Virions” for short) in the data set with HIV-1 virions (0.5 μg/mL, added 8 h post-infection) is recorded as 100.0%; in the data set with HIV-1 virions (0.5 μg/mL, added 16 h post-infection), 177.8%; in the data set on HIV-1 virions (0.5 μg/mL, added 24 h post-infection) it was 266.4%; in the data set on HIV-1 virions (5 μg/mL, added 8 h post-infection) it was 100.0%; with HIV-1 virions (5 μg/mL, added 16 h post-infection) it was 331.2%; with HIV-1 virions (5 μg/mL, added 24 h post-infection), 100.0%. For the same molecule, the “Percent Infectivity of HIV-1 Virions” value in the data set on HIV-1 virions (50 μg/mL, added 8 h post-infection) was 100.0%; in the data set with HIV-1 virions (50 μg/mL, added 16 h post-infection) it was 562.3%; in the data set with HIV-1 virions (50 μg/mL, added 24 h post-infection), 100.0%. Besides, the EC50 in the data set on HIV-1RF [1] (setting [7]) was 1.84 µg/mL; with HIV-1RF [1] (setting [8]) it was over 10 µg/mL; with HIV-1RF [1] (setting [9]), over 10 µg/mL; with HIV-1RF [1] (setting [10]) it was over 10 µg/mL; in the data set on HIV-1RF [2] (exposure 2 h pre-infection), over 10 µg/mL; in the data set with HIV-1RF [2] (exposure 8 h pre-infection), over 10 µg/mL. The EC50 in the data set with HIV-1RF [2] (exposure 24 h pre-infection) was over 10 µg/mL. Also, the “antiviral activity after pre-treatment of cells” value with HIV-1RF [2] (concentrations up to 10 μg/mL) is “did not demonstrate antiviral activity”. Moreover, the TC50 came to 5.6 µg/mL (≈ 6.19 µM) in the data set with CEM-SS cells (3 days), 5.5 µg/mL (≈ 6.08 µM) in the data set with CEM-SS cells (4 days), 4.9 µg/mL (≈ 5.42 µM) in the data set with CEM-SS cells (5 days) and 8.2 µg/mL (≈ 9.06 µM) with CEM-SS cells (6 days). Further, in the data set on HIV-1RF [3] (added at any time after infection, even at 50 μg/mL), the “effect on p24 levels” value was “did not affect p24 levels”.

`CC(C)c1nc(CN(C)C(=O)N[C@H](C(=O)N[C@@H](Cc2ccccc2)C[C@H](O)[C@H](Cc2ccccc2)NC(=O)OCc2cncs2)C(C)C)cs1` [Ritonavir]: the “Percent Infectivity of HIV-1 Virions” value in the data set on HIV-1 virions (0.01 μM, added 8 h post-infection) was 42.9%; in the data set on HIV-1 virions (0.01 μM, added 16 h post-infection) it was 331.2%; in the data set with HIV-1 virions (0.01 μM, added 24 h post-infection), 100.0%; in the data set on HIV-1 virions (0.1 μM, added 8 h post-infection), 1.0%; in the data set on HIV-1 virions (0.1 μM, added 16 h post-infection) it was 3.7%; with HIV-1 virions (0.1 μM, added 24 h post-infection) it was 26.6%. In addition, the “Percent Infectivity of HIV-1 Virions” value in the data set on HIV-1 virions (1 μM, added 8 h post-infection) stood at 0.1%; in the data set on HIV-1 virions (1 μM, added 16 h post-infection), 0.1%; in the data set with HIV-1 virions (1 μM, added 24 h post-infection), 0.1%. In addition, the EC50 with HIV-1RF [1] (setting [7]) was found to be 40 nM; with HIV-1RF [1] (setting [8]) it was 30 nM; in the data set on HIV-1RF [1] (setting [9]) it was 70 nM; in the data set with HIV-1RF [1] (setting [10]), 260 nM; in the data set with HIV-1RF [2] (exposure 2 h pre-infection), 720 nM; in the data set on HIV-1RF [2] (exposure 8 h pre-infection), 750 nM. The EC50 in the data set on HIV-1RF [2] (exposure 24 h pre-infection) worked out at 680 nM. The “EC50 values after pre-treatment of cells” value in the data set with HIV-1RF [2] (in words) is listed as “sub-micromolar”. Moreover, the “time of addition up to which antiviral activity (reduced p24) was seen” value is on record as “up to six” in the data set with HIV-1RF [3] (0.1 μM) and “up to 24 hours post-infection” in the data set with HIV-1RF [3] (1 μM).

As to `COCCOCCOCCOCCOCCOCCOCCOc1ccc(C[C@H](NC(=O)O[C@H]2CO[C@H]3OCC[C@H]32)C(O)CN(CC(C)C)S(=O)(=O)c2ccc(N)cc2)cc1` (some centres unmarked) [mPEG7-O-Darunavir], the “Microsomal Protein Binding Fu ± SD” value in [4] was 0.84 ± 0.0131. In the data set with Caco-2 cells, the “Efflux ratio (B→A/A→B)” value amounted to 33. In addition, the “A→B, ×10^−6” value in the data set on Caco-2 cells (apical to basolateral) came out at 0.19 cm/s. In addition, the EC50 in the data set with HIV-1 HT/92/599 worked out at 250 ± 27 nM. Also, in the data set with human plasma proteins, the “Plasma Protein Binding Fu ± SD” value amounted to 0.314 ± 0.0116. For the same molecule, the “PBMC TC50 ± SD” value in the data set with PBMCs is over 200000 nM. Further, the EC50 with HIV-1RF [5] is 47 nM and 76 nM. In data set [6], the “CLint ± SEM” value worked out at 113 ± 8.87 μL/min/mg protein and the t1/2 is 12.2 min.

Values taken from patent publication US10806794B2, “Protease inhibitors having enhanced features” (priority 2008, dated 2020).
